“And” between values parts separate entries of the source, which are not always exact repeats. Identical values can stand only once. Marks after values point to notes of the source that are not given here. Positions of bridges follow the written chain, without caps; N, C: chain ends. Non-standard residues stand in square brackets, D forms with d. Residues, ends and D or L forms follow the SMILES beside them. Chains are numbered I, II in the order given. *: point of attachment. PNA(A) = NCCN(CC(=O)*)C(=O)Cn1cnc2c(N)ncnc21; Adenin9ylacetyl = Nc1ncnc2c1ncn2CC(=O)*; N(CH2CH2NHAc)Gly = CC(=O)NCCNCC(=O)O
Legend:
Akt/PKB = Akt/PKB (Homo sapiens, UniProt P31749); assay: Luminescence Kinase Glo assay, Akt/PKB; type: biochemical; settings: 150000.0
Experimental: The ability of the PKI compounds to inhibit PKA, CDK2, Akt/PKB, MAPKp38 and CK2a2 protein kinases was assessed using the Luminescence Kinase Glo® Kit (Promega V6711) according to the manufacturer's instructions. In brief the protocol was as follows:
All kinases were prepared in their respective 1× buffers. 20 μL of […] reaction buffer was added to each well. 10 μL of PKI compound and 10 μL of the test kinase solution were added followed by 10 μL of the Reaction Solution (containing activators, ATP and substrate). The reactions were incubated at 30° C. for 30 min and then 50 μL of Kinase-Glo® was added. Luminescence was measured after 10-15 min on a Galaxy reader.

H-661 NSCLC cells = assay: Rhodamine influx and efflux in H-661 NSCLC cells; type: cell-based; settings: control cells exposed to doxorubicin
Experimental: (§1) The amount of rhodamine influx and efflux following treatment of LS180 colon cancer cells and H-661 NSCLC cells with the PKI compounds was also investigated. The measurement of rhodamine efflux and influx is a common procedure that provides a quantitative estimation of the level of multidrug resistance due to typical MDR and non-P-gp MDR. Both exogenous treatment using 5 μg/mL of the PKI compounds provided at the same time as doxorubicin, and endogenous incorporation, in which a single dose of 5 mM was used with the standard pinocytic endocytosis protocol, were investigated.
(§2) The MDR-1 pump functions only as an efflux pump, however, it modulates the cell entry of rhodamine (that can diffuse through the membrane). Upon toxicant exposure, rhodamine accumulates in the cells. Ratios of rhodamine fluorescence in doxorubicin exposed versus untreated controls (CT) are lower if the pump is inhibited.

[1] = system: MRP-1 expression in H-661 NSCLC cells; assay: MRP-1 expression in H-661 NSCLC cells, flow cytometry; type: cell-based; settings: H-661 control cell population exposed to doxorubicin for 72 h
Experimental: (§3) The protocol used for fixing the cells for flow cytometry is as follows. A minimum of 1.0×10^6 cells was used in each instance. Cells were trypsinized and spun down at 1,000/5 min at 4° C. All the medium was removed and the cells resuspended in 500 μl of 1×PBS, pH 7.1. The cell suspension was added into 5 mls of 1% paraformaldehyde/PBS on ice and fixed for 15 min on ice. Cells were then centrifuged at 1,000/5 min and resuspended in 10 mls of 1×PBS. Cells were centrifuged again at 1,000/5 min and resuspended in 2 mls of 70% ETOH and kept at −20° C. until needed (up to 1 week). At which time, 2 mls of 1×PBS containing 1% BSA/0.02% NaN3 was added to each tube and the cells were left on ice for 5 min to give the cells time to rehydrate. Cells were then centrifuged at 1,000/5 min and the ETOH/PBS mix removed. […]
(§4) In view of the key role of the Pgp170 and MRP-1 proteins in MDR, the effect of the PKI compounds on expression of these proteins in LS180 colon cancer cells and H-661 NSCLC cells was investigated. […] The number of cells individually analysed amounted to approximately 50,000 with a statistical error of about 0.08%.
(§5) The increase in the expression of P-gp and MRP-1 was assessed by comparing the % of cells expressing the protein in question in the presence and absence of doxorubicin (i.e. the ratio A/B in the Tables).

[2] = system: MRP-1 expression in LS180 colon cancer cells; assay: MRP-1 expression in LS180 colon cancer cells, flow cytometry; type: cell-based; settings: LS180 control cell population exposed to doxorubicin for 72 h
Experimental: as §3, §4, §5

[3] = system: PKCα expression in LS180 colon cancer cells; assay: Expression of PKCα in LS180 cells, flow cytometry; type: cell-based; settings: LS180 control cells exposed to doxorubicin for 72 h
Experimental: (§6) The effect of compounds 1 to 10 on doxorubicin-induced expression of PKCα in LS180 colon cancer cells and H-661 NSCLC cells was investigated. Cells were exposed to doxorubicin (50 ng/mL) for 3 days prior to exogenous treatment with the PKI compounds at a concentration of 5 μM. Results were acquired by flow cytometry after labelling of the cells with the PKC-alpha #sc 208 antibody.
as §3, with “removed. The cells were resuspended in 5 mls of 1×PBS and allowed to sit on ice for 5 min.” for “removed.”

LS180 colon cancer cells = assay: Rhodamine influx and efflux in LS180 colon cancer cells; type: cell-based; settings: doxorubicin exposed controls
Experimental: as §1, §2

[4] = system: PKCα expression in H-661 NSCLC cells; assay: Expression of PKCα in H-661 cells, flow cytometry; type: cell-based; settings: H-661 control cells exposed to doxorubicin for 72 h
Experimental: as §6
as §3, with “removed. The cells were resuspended in 5 mls of 1×PBS and allowed to sit on ice for 5 min.” for “removed.”

[5] = system: Pgp expression in LS180 colon cancer cells; assay: Pgp expression in LS180 colon cancer cells, flow cytometry; type: cell-based; settings: LS180 control cell population exposed to doxorubicin for 72 h
Experimental: as §3, §4, §5

[6] = system: Pgp expression in H-661 NSCLC cells; assay: Pgp expression in H-661 NSCLC cells, flow cytometry; type: cell-based; settings: H-661 control cell population exposed to doxorubicin for 72 h
Experimental: as §3, §4, §5

Akt/PKB, sequence (P31749 whole entry): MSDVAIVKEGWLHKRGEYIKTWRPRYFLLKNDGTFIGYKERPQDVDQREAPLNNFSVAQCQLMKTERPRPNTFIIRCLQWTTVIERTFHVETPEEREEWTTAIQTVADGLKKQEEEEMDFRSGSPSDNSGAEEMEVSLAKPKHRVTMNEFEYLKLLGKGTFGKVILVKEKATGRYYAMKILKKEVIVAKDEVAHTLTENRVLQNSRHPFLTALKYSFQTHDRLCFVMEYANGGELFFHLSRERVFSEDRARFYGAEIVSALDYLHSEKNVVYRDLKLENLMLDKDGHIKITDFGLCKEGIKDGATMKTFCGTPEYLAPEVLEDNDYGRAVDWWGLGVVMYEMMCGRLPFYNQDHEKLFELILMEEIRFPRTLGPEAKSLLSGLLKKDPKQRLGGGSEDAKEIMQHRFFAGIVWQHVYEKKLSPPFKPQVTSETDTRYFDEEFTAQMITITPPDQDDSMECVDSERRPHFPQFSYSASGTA

Structure (SMILES): CC[C@H](C)[C@H](NC(=O)[C@H](CSSC[C@H](NC(=O)CNC(=O)CN(CCNC(C)=O)C(=O)Cn1cnc2c(N)ncnc21)C(=O)N[C@@H](CCCCN)C(=O)NCC(=O)N[C@@H](CCCCN)C(=O)N[C@@H](Cc1ccccc1)C(=O)N[C@@H](CCCCN)C(=O)N[C@@H](CCCNC(=N)N)C(N)=O)NC(=O)[C@H](Cc1c[nH]cn1)NC(C)=O)C(=O)NCC(=O)N[C@@H](CCCNC(=N)N)C(=O)N[C@@H](Cc1ccccc1)C(=O)N[C@@H](CCCCN)C(N)=O [Compound 1] (I: Adenin9ylacetyl-[N(CH2CH2NHAc)Gly]GCKGKFKR-NH2 / II: Ac-HCIGRFK-NH2; disulfide I:3-II:2; N-terminus and C-terminus assumed)
- % Inhibition Akt/PKB (Akt/PKB): −31* %

Structure (SMILES): CC(=O)N[C@@H](CCCCN)C(=O)N[C@@H](Cc1ccccc1)C(=O)N[C@@H](CCCNC(=N)N)C(=O)N[C@@H](CCCNC(=N)N)C(=O)N[C@@H](CCCCNC(=O)CN(CCN)C(=O)Cn1cnc2c(N)ncnc21)C(=O)N[C@@H](CCCNC(=N)N)C(=O)NCC(=O)N[C@@H](CCCNC(=N)N)C(=O)N[C@@H](CCC(=O)O)C(=O)N[C@H](C(=O)N[C@@H](CC(=O)O)C(N)=O)C(C)C [Compound 5] (Ac-KFRRK(PNA(A))RGREVD-NH2)
- % Inhibition Akt/PKB (Akt/PKB): −6* %

Structure (SMILES): CC(=O)N[C@@H](CCCCN)C(=O)N[C@@H](Cc1ccccc1)C(=O)N[C@@H](CCCNC(=N)N)C(=O)N[C@@H](CCCNC(=N)N)C(=O)N[C@@H](CCCCNC(=O)CN(CCN)C(=O)Cn1cnc2c(N)ncnc21)C(=O)N[C@@H](CC(C)C)C(=O)N[C@@H](CCCNC(=N)N)C(=O)N[C@@H](CC(C)C)C(=O)N[C@@H](CCC(=O)O)C(=O)N[C@H](C(=O)N[C@@H](CC(=O)O)C(N)=O)C(C)C [Compound 6] (Ac-KFRRK(PNA(A))LRLEVD-NH2)
- % Inhibition Akt/PKB (Akt/PKB): −10* %

Structure (SMILES): CC(=O)N[C@@H](CCCCN)C(=O)N[C@@H](CC(C)C)C(=O)N[C@@H](CCCNC(=N)N)C(=O)N[C@@H](CCCNC(=N)N)C(=O)N[C@@H](C)C(=O)N[C@@H](CCCCNC(=O)CN(CCN)C(=O)Cn1cnc2c(N)ncnc21)C(=O)N[C@@H](CCCNC(=N)N)C(=O)N[C@@H](Cc1ccccc1)C(=O)N[C@@H](CC(C)C)C(=O)N[C@@H](CCC(=O)O)C(=O)N[C@H](C(=O)N[C@@H](CC(=O)O)C(N)=O)C(C)C [Compound 7] (Ac-KLRRAK(PNA(A))RFLEVD-NH2)
- % Inhibition Akt/PKB (Akt/PKB): −7* %

Structure (SMILES): CC(=O)N[C@@H](CCCCN)C(=O)N[C@@H](CC(C)C)C(=O)N[C@@H](CCCNC(=N)N)C(=O)N[C@@H](CCCNC(=N)N)C(=O)N[C@@H](C)C(=O)N[C@@H](CCCCNC(=O)CN(CCN)C(=O)Cn1cnc2c(N)ncnc21)C(=O)N[C@@H](CC(C)C)C(=O)NCC(=O)N[C@@H](CC(C)C)C(=O)NCC(=O)N[C@@H](CC(=O)O)C(=O)N[C@@H](CC(=O)O)C(N)=O [Compound 8] (Ac-KLRRAK(PNA(A))LGLGDD-NH2)
- % Inhibition Akt/PKB (Akt/PKB): 0%

Structure (SMILES): CC(=O)N[C@@H](CCCCN)C(=O)N[C@@H](CC(C)C)C(=O)N[C@@H](CCCCN)C(=O)N[C@@H](CCCCN)C(=O)N[C@@H](C)C(=O)N[C@@H](CCCCNC(=O)CN(CCN)C(=O)Cn1cnc2c(N)ncnc21)C(=O)N[C@@H](CC(C)C)C(=O)NCC(=O)N[C@@H](CC(C)C)C(N)=O [Compound 9] (Ac-KLKKAK(PNA(A))LGL-NH2; N-terminus and C-terminus assumed)
- % Inhibition Akt/PKB (Akt/PKB): 7%

Structure (SMILES): CC(=O)NCCN(CC(=O)NCC(=O)N[C@@H](CS)C(=O)N[C@@H](CCCCN)C(=O)NCC(=O)N[C@@H](CCCCN)C(=O)N[C@@H](Cc1ccccc1)C(=O)N[C@@H](CCCCN)C(=O)N[C@@H](CCCNC(=N)N)C(N)=O)C(=O)Cn1cnc2c(N)ncnc21 [Compound 10] (Adenin9ylacetyl-[N(CH2CH2NHAc)Gly]GCKGKFKR-NH2; N-terminus and C-terminus assumed)
- % Inhibition Akt/PKB (Akt/PKB): 21%

Structure (SMILES): COc1cccc2c1C(=O)c1c(O)c3c(c(O)c1C2=O)C[C@@](O)(C(=O)CO)C[C@@H]3O[C@H]1C[C@H](N)[C@H](O)[C@H](C)O1 [doxorubicin]
- increase in rhodamine retention (H-661 NSCLC cells): ~2.00 times
- increase in number of MRP-1 labelled cells, average [1]: 12.05 times
- increase in number of MRP-1 labelled cells, average [2]: 3.41 times
- increase in log fluorescence relative intensity (PKCα), average [3]: 1.99 times
- rhodamine accumulation (LS180 colon cancer cells): 1.58 times and 1.43 times and 1.37 times
- increase in log fluorescence relative intensity (PKCα), average [4]: 2.19 times
- increase in number of P-gp labelled cells, average [5]: 2.38 times
- increase in number of P-gp labelled cells, average [6]: 15.0 times

From patent publication US8158586B2, “Inhibitors of protein kinases and uses thereof” (priority 2005, dated 2012)
